From ChEMBL document CHEMBL4359833, “Philanthotoxin Analogues That Selectively Inhibit Ganglionic Nicotinic Acetylcholine Receptors with Exceptional Potency” (J Med Chem, 2019)

Tests used:
Format in all cases: cell-based
[1] = target: T1, Neuronal acetylcholine receptor; alpha3/beta4 (Homo sapiens, UniProt P30926+P32297); assay: Antagonist activity at alpha3beta4 nAChR (unknown origin) expressed in Xenopus laevis oocytes assessed as inhibition of Ach-induced channel activation at -100 mV holding potential treated for 1 min by two electrode voltage-clamp assay
[2] = target: T2, Neuronal acetylcholine receptor; alpha4/beta2 (Homo sapiens, UniProt P17787+P43681); assay: Antagonist activity at alpha4beta2 nAChR (unknown origin) expressed in Xenopus laevis oocytes assessed as inhibition of Ach-induced channel activation at -100 mV holding potential treated for 1 min by two electrode voltage-clamp assay relative to PhTX-343 IC50
[3] = target: T2, Neuronal acetylcholine receptor; alpha4/beta2; assay: Antagonist activity at alpha4beta2 nAChR (unknown origin) expressed in Xenopus laevis oocytes assessed as inhibition of Ach-induced channel activation at -100 mV holding potential treated for 1 min by two electrode voltage-clamp assay
[4] = species on record: Homo sapiens; assay: Selectivity ratio of IC50 for alpha4beta2 nAChR (unknown origin) expressed in Xenopus laevis oocytes to IC50 for alpha3beta4 nAChR (unknown origin) expressed in Xenopus laevis oocytes
[5] = target: T1, Neuronal acetylcholine receptor; alpha3/beta4; assay: Antagonist activity at alpha3beta4 nAChR (unknown origin) expressed in Xenopus laevis oocytes assessed as inhibition of Ach-induced channel activation at -100 mV holding potential treated for 1 min by two electrode voltage-clamp assay relative to PhTX-343 IC50

T1 sequence (P30926 whole entry): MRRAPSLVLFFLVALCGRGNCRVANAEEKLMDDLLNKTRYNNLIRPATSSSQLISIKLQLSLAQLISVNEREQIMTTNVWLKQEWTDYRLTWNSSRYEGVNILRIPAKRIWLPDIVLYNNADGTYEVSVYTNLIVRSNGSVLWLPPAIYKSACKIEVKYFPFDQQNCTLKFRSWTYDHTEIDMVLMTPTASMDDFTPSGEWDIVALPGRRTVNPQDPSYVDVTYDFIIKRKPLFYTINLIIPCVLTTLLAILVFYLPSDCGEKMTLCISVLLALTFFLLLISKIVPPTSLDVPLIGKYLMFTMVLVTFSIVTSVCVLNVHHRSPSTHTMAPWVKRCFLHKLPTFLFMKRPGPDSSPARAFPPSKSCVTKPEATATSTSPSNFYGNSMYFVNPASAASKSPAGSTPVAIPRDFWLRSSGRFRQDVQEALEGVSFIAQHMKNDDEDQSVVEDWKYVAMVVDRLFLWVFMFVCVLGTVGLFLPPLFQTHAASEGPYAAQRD
T1 sequence (P32297 whole entry): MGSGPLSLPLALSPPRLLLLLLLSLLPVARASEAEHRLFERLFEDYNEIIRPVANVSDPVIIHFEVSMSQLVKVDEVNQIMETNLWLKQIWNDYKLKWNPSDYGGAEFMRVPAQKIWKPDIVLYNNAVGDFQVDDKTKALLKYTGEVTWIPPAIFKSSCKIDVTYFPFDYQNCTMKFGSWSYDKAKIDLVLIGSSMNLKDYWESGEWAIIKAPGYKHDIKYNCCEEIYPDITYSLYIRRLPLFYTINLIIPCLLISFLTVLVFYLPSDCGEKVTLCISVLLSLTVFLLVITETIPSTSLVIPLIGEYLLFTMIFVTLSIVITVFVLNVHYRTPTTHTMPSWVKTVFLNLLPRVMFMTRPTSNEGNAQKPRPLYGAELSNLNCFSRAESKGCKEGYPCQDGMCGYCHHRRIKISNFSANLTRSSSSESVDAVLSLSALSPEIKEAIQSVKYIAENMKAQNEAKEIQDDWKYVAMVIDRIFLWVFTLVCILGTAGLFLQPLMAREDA
T2 sequence (P17787 whole entry): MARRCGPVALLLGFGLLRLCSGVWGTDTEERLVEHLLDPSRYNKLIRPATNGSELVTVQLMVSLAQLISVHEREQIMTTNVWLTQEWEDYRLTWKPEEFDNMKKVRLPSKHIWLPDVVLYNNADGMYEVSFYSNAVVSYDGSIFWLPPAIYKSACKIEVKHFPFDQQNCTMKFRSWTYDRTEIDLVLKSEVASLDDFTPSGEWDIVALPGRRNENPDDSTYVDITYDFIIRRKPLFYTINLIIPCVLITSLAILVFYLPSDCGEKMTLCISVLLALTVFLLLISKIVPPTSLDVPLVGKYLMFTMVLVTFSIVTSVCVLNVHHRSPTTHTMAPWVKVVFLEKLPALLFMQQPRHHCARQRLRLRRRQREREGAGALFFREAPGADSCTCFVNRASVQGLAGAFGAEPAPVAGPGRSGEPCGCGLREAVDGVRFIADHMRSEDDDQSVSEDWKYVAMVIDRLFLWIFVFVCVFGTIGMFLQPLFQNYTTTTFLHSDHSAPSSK
T2 sequence (P43681 whole entry): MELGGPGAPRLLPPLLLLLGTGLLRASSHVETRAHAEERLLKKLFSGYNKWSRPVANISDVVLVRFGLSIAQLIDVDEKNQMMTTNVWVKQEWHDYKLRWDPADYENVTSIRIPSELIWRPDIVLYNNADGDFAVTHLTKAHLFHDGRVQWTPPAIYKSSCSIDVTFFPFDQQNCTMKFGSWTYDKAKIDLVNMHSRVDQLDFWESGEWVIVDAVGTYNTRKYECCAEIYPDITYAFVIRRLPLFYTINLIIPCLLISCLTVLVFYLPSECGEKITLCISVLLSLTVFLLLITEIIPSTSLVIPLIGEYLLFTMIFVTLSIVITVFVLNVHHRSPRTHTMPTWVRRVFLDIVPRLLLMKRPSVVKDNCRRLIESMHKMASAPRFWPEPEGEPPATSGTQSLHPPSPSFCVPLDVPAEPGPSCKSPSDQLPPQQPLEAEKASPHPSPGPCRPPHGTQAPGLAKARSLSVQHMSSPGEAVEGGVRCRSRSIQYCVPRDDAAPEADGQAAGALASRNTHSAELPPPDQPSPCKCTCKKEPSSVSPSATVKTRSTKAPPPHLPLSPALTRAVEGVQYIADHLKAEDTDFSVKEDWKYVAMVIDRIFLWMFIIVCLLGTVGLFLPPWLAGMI

For `NCCCNCCCCNCCCNC(=O)[C@H](CC1CCCCC1)NC(=O)/C=C/c1ccccc1`, the IC50 [1] was 0.35 nM, the Ratio IC50 [2] was 6.6 and the IC50 [3] was 12.1 nM. For the same molecule, the Ratio IC50 [4] was 34.6 and the Ratio IC50 [5] was 21.9.

Work on `NCCCNCCCCNCCCNC(=O)[C@H](CC1CCCCC1)NC(=O)C1CCCC1` yielded an IC50 [1] of 0.65 nM, a Ratio IC50 [2] of 14.8 and an IC50 [3] of 5.43 nM. For the same molecule, the Ratio IC50 [4] was 8.4 and the Ratio IC50 [5] was 11.8.

For `CCCC(=O)N[C@@H](Cc1ccc(O)cc1)C(=O)NCCCNC[C@@H]1C[C@H]1CNCCCN`, the IC50 [1] was 0.92 nM, the Ratio IC50 [2] was 1.8 and the IC50 [3] was 44.3 nM. For the same molecule, the Ratio IC50 [4] was 48.2 and the Ratio IC50 [5] was 8.3.

`CCCC(=O)N[C@@H](Cc1ccc(O)cc1)C(=O)NCCCNC[C@H]1C[C@H]1CNCCCN` gave an IC50 [1] of 1.44 nM, a Ratio IC50 [2] of 1.7 and an IC50 [3] of 47.4 nM. It also gave a Ratio IC50 [4] of 32.9 and a Ratio IC50 [5] of 5.3.

`NCCCNCCCCNCCCNC(=O)[C@H](CC1CCCCC1)NC(=O)Cc1cccc2ccccc12` was tested, and the IC50 [1] was 0.16 nM, the Ratio IC50 [2] was 5.5 and the IC50 [3] was 14.6 nM. The Ratio IC50 [4] was 91.3 and the Ratio IC50 [5] was 47.8.

Molecule `NCCCNCCCCNCCCNC(=O)[C@H](CC1CCCCC1)NC(=O)C1CCCCCC1` has an IC50 [1] of 0.55 nM, a Ratio IC50 [2] of 2.8 and an IC50 [3] of 28.2 nM. For the same molecule, the Ratio IC50 [4] was 51.3 and the Ratio IC50 [5] was 13.9.

`NCCCNCCCCNCCCNC(=O)[C@H](CC1CCCCC1)NC(=O)CC1CC2CCC1C2` (stereo partly drawn) gave an IC50 [1] of 0.95 nM, a Ratio IC50 [2] of 3.1 and an IC50 [3] of 25.6 nM. The Ratio IC50 [4] was 26.9 and the Ratio IC50 [5] was 8.1.

Work on `CCCC(=O)N[C@@H](CC1CCCCC1)C(=O)NCCCNCCCCNCCCN` yielded an IC50 [1] of 2.62 nM, a Ratio IC50 [2] of 31.1 and an IC50 [3] of 2.58 nM. It also gave a Ratio IC50 [4] of 1 and a Ratio IC50 [5] of 2.9.

`NCCCNCCCCNCCCNC(=O)[C@H](CC1CCCCC1)NC(=O)c1ccccc1` gave an IC50 [1] of 0.37 nM, a Ratio IC50 [2] of 3.7 and an IC50 [3] of 21.4 nM. For the same molecule, the Ratio IC50 [4] was 57.8 and the Ratio IC50 [5] was 20.7.

For `NCCCNCCCCNCCCNC(=O)[C@H](Cc1ccc(O)cc1)NC(=O)C1CCCCC1`, the IC50 [1] was 0.46 nM, the Ratio IC50 [2] was 2.2 and the IC50 [3] was 36.6 nM. The Ratio IC50 [4] was 79.6 and the Ratio IC50 [5] was 16.6.

`NCCCNCCCCNCCCNC(=O)[C@H](CC1CCCCC1)NC(=O)C1CC1` showed an IC50 [1] of 2.63 nM, a Ratio IC50 [2] of 0.7 and an IC50 [3] of 112 nM. The Ratio IC50 [4] was 42.6 and the Ratio IC50 [5] was 2.9.

`CCCC(=O)N[C@@H](CCc1ccccc1)C(=O)NCCCNCCCCNCCCN` gave an IC50 [1] of 1.74 nM, a Ratio IC50 [2] of 3.9 and an IC50 [3] of 20.8 nM. It also gave a Ratio IC50 [4] of 12 and a Ratio IC50 [5] of 4.4.

For `NCCCNCCCCNCCCNC(=O)[C@H](CC1CCCCC1)NC(=O)C1CCCCC1`, the IC50 [1] was 2.19 nM, the Ratio IC50 [2] was 2.6 and the IC50 [3] was 31.4 nM. For the same molecule, the Ratio IC50 [4] was 14.3 and the Ratio IC50 [5] was 3.5.

`NCCCNCCCCNCCCNC(=O)[C@H](Cc1ccc(O)cc1)NC(=O)C1CCCC1` gave an IC50 [1] of 0.57 nM, a Ratio IC50 [2] of 3.6 and an IC50 [3] of 22.5 nM. For the same molecule, the Ratio IC50 [4] was 39.5 and the Ratio IC50 [5] was 13.4.

Work on `NCCCNCCCCNCCCNC(=O)[C@H](CC1CCCCC1)NC(=O)C1CCC1` yielded an IC50 [1] of 1.07 nM, a Ratio IC50 [2] of 3.9 and an IC50 [3] of 20.8 nM. It also gave a Ratio IC50 [4] of 19.4 and a Ratio IC50 [5] of 7.1.

Molecule `CCCC(=O)N[C@@H](Cc1ccccc1)C(=O)NCCCNCCCCNCCCN` has an IC50 [1] of 0.93 nM, a Ratio IC50 [2] of 2.9 and an IC50 [3] of 27.8 nM. It also gave a Ratio IC50 [4] of 29.9 and a Ratio IC50 [5] of 8.2.

Work on `CCCC(=O)N[C@@H](Cc1ccc(O)cc1)C(=O)NCCCNCCCCNCCCN` [PHILANTHOTOXIN 343] yielded an IC50 [1] of 7.65 nM, an IC50 [3] of 80.2 nM and a Ratio IC50 [4] of 10.5.

Work on `NCCCNCCCCNCCCNC(=O)[C@H](CC1CCCCC1)NC(=O)c1ccc(-c2ccccc2)cc1` yielded an IC50 [1] of 2.83 nM, a Ratio IC50 [2] of 3.1 and an IC50 [3] of 25.8 nM. It also gave a Ratio IC50 [4] of 9.1 and a Ratio IC50 [5] of 2.7.
